Laboratory results as given in patent publication US6462023B1, “Cytostatic agents” (British Biotech Pharmaceuticals, Ltd., priority 1988, dated 2002).
Like-named read-outs stand apart in the source and are kept apart here.

Test system: histiocytic lymphoma (U937)
Assay: cell proliferation assay ([methyl-3H] thymidine incorporation), U937
Type: cell-based, human
Conditions: for activity at 6 µM: Homo sapiens, U-937, 72 hours in culture, n=6, read-out: U937: percentage of control 3[H] Thymidine incorporation
Experimental: (§1) Two human cell lines namely a histiocytic lymphoma (U937) and a melanoma (RPMI-7951) were seeded into 30 mm^2 tissue culture wells, in the appropriate culture medium supplemented with 10% fetal calf serum at a density of 250 cells/mm^2. Six hours later the test compounds were added in the same culture medium to the cells to give a final concentration of 6 μM. Control wells contained cells supplemented with the same culture medium containing the equivalent amount of drug vehicle, which in this case was DMSO at a final concentration of 0.08%. After 72 hours in culture the cells were pulsed for 3 hours with [methyl-^3[H] Thymidine] (2 μCi/ml) and then harvested onto filter mats and DNA associated radioactivity counted. Results are expressed as percentage of control ^3[H] Thymidine incorporation (n=6±1 stdv).
Further examples were tested in the U937 assay described above at 6 μM and the results, expressed as percentage of control ^3[H] Thymidine incorporation (n=6±1 stdv), are set out in the following Table 2.
as §1, with “A” for “Two”, “line,” for “lines”, “(U937), was” for “(U937) and a melanoma (RPMI-7951) were”, “30MM^2” for “30 mm^2”, “cellS/MM^2.” for “cells/mm^2.”, “were” for “are”

SMILES | activity at 6 µM (Table 2, 6 μM) | further results
O=c1[nH]cc(F)c(=O)[nH]1 [5-fluorouracil, reference compound] | – | activity in the U937 assay relative to that observed with the vehicle alone (6 μM, comparison compound): 50%
COC(=O)[C@@H](Cc1ccccc1)NC(=O)[C@@H](CC(C)C)[C@@H](C)C(=O)NO [Example 4, 3S-(2-Phenyl-1R-methylcarboxy-ethylcarbamoyl)-2R, 5-dimethylhexanohydroxamic acid, reference compound] | – | activity at 6 µM (Table 1, final concentration 6 μM, 3 hours pulse): 93%
C=CC[C@H](C(=O)NO)[C@@H](CC(C)C)C(=O)N[C@@H](Cc1ccccc1)C(=O)OC(C)(C)C [Example 6, 2S-(3S-Hydroxycarbamoyl-2R-isobutyl-hex-5-enoylamino)-3-phenyilpropionic acid tert-butyl ester] | 18% | –
CC(C)C[C@H](CC(=O)NO)C(=O)N[C@@H](Cc1ccccc1)C(=O)OC(C)C [Example 7, 2S-(2R-Hydroxycarbamoylmethyl-4-methyl-pentanoylamino)-3-phenyl-propionic acid isopropyl ester] | 0% | –
CC(C)C[C@@H](C(=O)N[C@@H](Cc1ccccc1)C(=O)OC(C)C)[C@H](O)C(=O)NO [Example 8, 2S-[2R-(S-Hydroxy-hydroxycarbamoyl-methyl)-4-methyl-pentanoylamine]-3-phenyl-propionic acid isopropyl ester] | 1% | –
CC(C)C[C@@H](C(=O)N[C@@H](Cc1ccccc1)C(=O)OC(C)C)[C@H](C)C(=O)NO [Example 9, 2S-[2R-(1S-Hydroxycarbamoyl-ethyl)-4-methyl-pentanoylamino]-3-phenyl-propionic acid isopropyl ester] | 8% | –
CCCCCC[C@H](CC(=O)NO)C(=O)N[C@@H](Cc1ccccc1)C(=O)OC(C)C [Example 10, 2S-(2R-Hydroxycarbamoylmethyl-octanoylamino)-3-phenyl-propionic acid isopropyl ester] | 1% | –
CC(C)C[C@@H](C(=O)N[C@@H](Cc1ccccc1)C(=O)OC1CCCC1)[C@H](O)C(=O)NO [Example 11, 2S-[2R-(S-Hydroxy-hydroxycarbamoyl-methyl)-4-methyl-pentanoylamino]-3-phenyl-propionic acid cyclopentyl ester] | 0% | –
C=CC[C@H](C(=O)NO)[C@@H](CC(C)C)C(=O)N[C@H](C(=O)OC1CCCC1)C(C)CC (stereo partly drawn) [Example 12, 2S-(3S-Hydroxycarbamoyl-2R-isobutyl-hex-5-enoylamino)-3S-methyl-pentanoic acid cyclopentyl ester] | 10% | –
C=CC[C@H](C(=O)NO)[C@@H](CC(C)C)C(=O)N[C@H](Cc1ccccc1)C(=O)OCCOC [Example 13, 2S-(3S-Hydroxycarbamoyl-2R-isobutyl-hex-5-enoylamino)-3-phenylpropionic acid 2-methoxy-ethyl ester] | 4% | –
COCCOC(=O)[C@@H](Cc1ccccc1)NC(=O)[C@H](CC(C)C)[C@H](C)C(=O)NO [Example 14, 2S-[2R-(1S-Hydroxycarbamoyl-ethyl)-4-methyl-pentanoylamino]-3-phenyl-propionic acid 2-methoxy-ethyl ester] | 33% | –
CCC[C@H](C(=O)NO)[C@@H](CC(C)C)C(=O)N[C@@H](C(=O)OCCOC)C(C)(C)C [Example 15, 2S-(3S-Hydroxycarbamoyl-2R-isobutyl-hexanoylamino)-3,3-dimethyl-butyric acid 2-methoxy-ethyl ester] | 19% | –
CO[C@H](C(=O)NO)[C@@H](CC(C)C)C(=O)N[C@@H](Cc1ccccc1)C(=O)OC(C)C [Example 16, 2S-[2R-(S-Hydroxycarbamoyl-methoxy-methyl)-4-methyl-pentanoylamino]-3-phenyl-propionic acid isopropyl ester] | 2% | –
CC(C)C[C@@H](C(=O)N[C@@H](Cc1ccccc1)C(=O)OC(C)C)[C@H](CSc1cccs1)C(=O)NO [Example 17, 2S-{2R-[1S-Hydroxycarbamoyl-2-(thiophen-2-ylsulphanyl)-ethyl]-4-methyl-pentanoylamino}-3-phenyl-propionic acid isopropyl ester] | 0% | –
COCCOC(=O)[C@H](NC(=O)[C@H](CC(C)C)[C@H](C)C(=O)NO)C(C)(C)C [Example 18, 2S-[2R-(1S-Hydroxycarbamoyl-ethyl)-4-methyl-pentanoylamino]-3,3-dimethyl-butyric acid 2-methoxy-ethyl ester] | 54% | –
C=CC[C@H](C(=O)NO)[C@@H](CC(C)C)C(=O)N[C@@H](Cc1ccccc1)C(=O)OC1CCCC1 [Example 20, 2S-(3S-Hydroxycarbamoyl-2R-isobutyl-hex-5-enoylamino)-3-phenylpropionic acid cyclopentyl ester] | 0% | –
CCC[C@H](C(=O)NO)[C@@H](CC(C)C)C(=O)N[C@@H](Cc1ccccc1)C(=O)OC(C)C [Example 21, 2S-(3S-Hydroxycarbamoyl-2R-isobutyl-hexanoylamino)-3-phenylpropionic acid isopropyl ester] | 1% | –
C=CC[C@H](C(=O)NO)[C@@H](CC(C)C)C(=O)N[C@H](C(=O)OC(C)C)C(C)(C)C [Example 22, 2S-(3S-Hydroxycarbamoyl-2R-isobutyl-hex-5-enoylamino)-3,3-dimethyl-butyric acid isopropyl ester] | 51% | –
C=CC[C@H](C(=O)NO)[C@@H](CC(C)C)C(=O)N[C@H](Cc1ccccc1)C(=O)OC(C)C [Example 23, 2R-(3S-Hydroxycarbamoyl-2R-isobutyl-hex-5-enoylamino)-3-phenylpropionic acid isopropyl ester] | 36% | –
CO[C@H](C(=O)NO)[C@@H](CC(C)C)C(=O)N[C@H](C(=O)OC(C)C)C(C)(C)C [Example 24, 2S-[2R-(S-Hydroxycarbamoyl-methoxy-methyl)-4-methyl-pentanoylamino]-3,3-dimethyl-butyric acid isopropyl ester] | 50% | –
C=CC[C@H](C(=O)NO)[C@@H](CC(C)C)C(=O)N(C)[C@@H](Cc1ccccc1)C(=O)OC(C)C [Example 25, 2S-{(3S-Hydroxycarbamoyl-2R-isobutyl-hex-5-enoyl)-methyl-amino)-3-phenylpropionic acid isopropyl ester] | 34% | –
C=CC[C@H](C(=O)NO)[C@@H](CC(C)C)C(=O)N[C@@H](Cc1ccccc1)C(=O)OCc1ccccc1 [Example 26, 2S-(3S-Hydroxycarbamoyl-2R-isobutyl-hex-5-enoylamino)-3-phenylpropionic acid benzyl ester] | 0% | –
C=CC[C@H](C(=O)NO)[C@@H](CC(C)C)C(=O)N[C@@H](CC(C)C)C(=O)OC1CCCC1 [Example 27, 2S-(3S-Hydroxycarbamoyl-2R-isobutyl-hex-5-enoylamino)-4-methyl-pentanoic acid cyclopentyl ester] | 0% | –
C=CC[C@H](C(=O)NO)[C@@H](CC(C)C)C(=O)N[C@@H](CC1CCCCC1)C(=O)OC1CCCC1 [Example 28, 3-Cyclohexyl-2S-(3S-hydroxycarbamoyl-2R-isobutyl-hex-5-enoylamino)-propionic acid cyclopentyl ester] | 0% | –
